The values below come from patent publication US20230091810A1, “FIRST-IN-CLASS OF SHMT2 AND MTHFD2 INHIBITORS AS ANTITUMOR AGENTS” (Duquesne University of the Holy Spirit, priority 2017, published 2023).

The target of one series is T1, SHMT2 (Homo sapiens, UniProt P34897).
T1 sequence (P34897 30-504): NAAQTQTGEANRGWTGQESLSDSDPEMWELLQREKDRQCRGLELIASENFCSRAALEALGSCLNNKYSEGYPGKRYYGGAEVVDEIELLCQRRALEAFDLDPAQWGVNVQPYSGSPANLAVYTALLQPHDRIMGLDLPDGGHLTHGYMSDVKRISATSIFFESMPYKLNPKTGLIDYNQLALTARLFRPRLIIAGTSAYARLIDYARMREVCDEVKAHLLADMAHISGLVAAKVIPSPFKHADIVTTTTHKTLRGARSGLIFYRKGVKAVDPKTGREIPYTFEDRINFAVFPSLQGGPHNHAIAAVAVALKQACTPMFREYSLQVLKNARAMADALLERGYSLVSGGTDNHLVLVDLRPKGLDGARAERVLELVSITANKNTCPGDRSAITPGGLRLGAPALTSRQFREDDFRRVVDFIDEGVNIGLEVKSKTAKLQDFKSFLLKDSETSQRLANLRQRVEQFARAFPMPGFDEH
Nature of the series: in vitro inhibition of purified SHMT2, coupled SHMT2-MTHFD2 assay with NADH readout. Particulars: purified N-terminally His-tagged enzyme; compounds as monoglutamates; * designates one experiment.

The test system of a further series is H460 cells. Briefly: glycine/nucleoside protection of growth inhibition in H460 cells. The class given is cell-based, human. As to the method:
We also tested the protective effects of AICA (320 µM) which is metabolized to AICAR (ZMP) (AICARFTase substrate), thus circumventing the GARFTase step in de novo purine biosynthesis (27) (see FIG. 1). […] Analogous results were obtained with HCT116 and MIA PaCa-2 tumor cells (see FIG. 14).
(§1) For proliferation assays of the HCT116, H460, and MIA PaCa2 tumor cell lines, the cells were plated in 96-well plates in an identical manner to the CHO experiments, except that the maximal drug concentration was increased to 10 µM. Glycine/nucleoside protection experiments in CHO and tumor cell lines were performed in folate- and glycine-free RPMI 1640/10% dialyzed fetal bovine serum supplemented with 25 nM leucovorin without additions, or in the presence of adenosine (60 µM), thymidine (10 µM), glycine (130 µM) and/or 5-aminoimidazole-4-carboxamide (AICA) (320 µM). Growth of metabolite-treated cells was normalized to controls treated with metabolites and vehicle (i.e., DMSO) both singly and in combination. Treatments with all metabolites were performed in parallel on the same plate for a given drug.

The next series concerns HPAC (PaC). Briefly: proliferation assay, HPAC pancreatic cancer cells. In kind it is cell-based, human. Particulars: folate-/glycine-free RPMI1640 with 25 nM leucovorin; read-out: IC50s (SE) HPAC (PaC). As to the method:
(§2) Proliferation assays were performed with engineered Chinese hamster ovary (CHO) cell lines R2 (transporter-null), PC43-10 (expresses RFC only), RT16 (FRα only), and R2/PCFT4 (PCFT only) cultured in folate-/glycine-free RPMI1640 supplemented with 25 nM leucovorin. Additional results are shown for HCT116 (colon tumor cells (CTC)), IGROV1 (epithelial ovarian cancer (EOC) cells), H460 (non-small cell lung cancer (NSCLC) cells), MIAPaCa-2 (pancreatic cancer (PaC) cells), and HPAC (PaC).
as §1

Another series concerns MIA PaCa-2 (PaC). Briefly: proliferation assay, MIA PaCa-2 pancreatic cancer cells. The settings on record: folate-/glycine-free RPMI1640 with 25 nM leucovorin; 96 h; read-out: IC50s (SE) MIA PaCa-2 (PaC). The class given is cell-based, human. As to the method: as §2
(§3) Cell culture and proliferation/protection assays. The HCT116 cell lines including the serine hydroxymethyltransferase (SHMT) 1, SHMT2, and methylene THF dehydrogenase 2 (MTHFD2) knockout (KO) cells were previously described (47,53). The H460 cell line was obtained from the American Type Culture Collection (Manassas, VA), whereas the MIA PaCa-2 cells were provided by Dr. Yubin Ge (Karmanos Cancer Institute). Cell lines were verified by STR analysis by Genetica DNA Laboratories (Burlington, NC). MTXRIIOua^R2-4 (i.e. R2) Chinese hamster ovary (CHO) cells were generously provided by Dr. Wayne Flintoff (University of Western Ontario) (54). From this parental R2 cell line, human RFC and PCFT were individually transfected to generate the isogenic CHO cell lines designated PC43-10 (RFC) and R2/PCFT4 (PCFT) (55-57). Human tumor cell lines were cultured in folate-free RPMI supplemented with 10% dialyzed fetal bovine serum (Sigma-Aldrich), 1% penicillin/streptomycin solution, 2 mM L-glutamine, and 25 nM leucovorin in a humidified atmosphere at 37° C. in the presence of 5% CO2 and 95% air. The CHO cell lines were cultured in alpha-minimal essential medium (alpha-MEM) supplemented with 10% bovine calf serum, 1% penicillin/streptomycin solution, and 2 mM L-glutamine. Additionally, the transfected CHO cell lines (i.e. R2/PCFT4 and PC43-10) were maintained under continuous selection with 1 mg/ml of G418.
as §1

The subject of a further series is RT16 (FR alpha) (CHO). Briefly: proliferation assay, RT16 CHO cells expressing FR alpha only. The class given is cell-based, Chinese hamster. The settings on record: folate-/glycine-free RPMI1640 with 25 nM leucovorin; 96 h; read-out: IC50s (SE) RT16 (FR alpha) (CHO). As to the method:
as §2
(§4) For proliferation assays with the CHO cell lines, the cells were treated with drugs (0-1 µM) in a 96-well plate (2000 cells/well) in glycine-free, nucleoside-free folate-free RPMI supplemented with 10% dialyzed fetal bovine serum, 1% penicillin/streptomycin, 2 mM L-glutamine, and 25 nM leucovorin (final volume 200 µL) over a 96 h incubation period at 37° C. with 5% CO2. The drugs were dissolved in DMSO; an equivalent amount of DMSO was added to the control (no addition) samples. To quantify viable cells, the media was removed and plates were washed once with 100 µL Dulbecco’s Phosphate-Buffered Saline (PBS), after which 100 µL PBS and 20 µL Cell Titer-blue (Promega) were added. Relative cell numbers were proportional to the fluorescence measured with a fluorescence plate reader (590 nm emission, 560 nm excitation). Background fluorescence (cell-free wells treated with Cell Titer-blue) was subtracted and these corrected values were normalized to results for cells treated in an identical manner without drugs.

Another series deals with IGROV1 (EOC). Nature of the series: proliferation assay, IGROV1 epithelial ovarian cancer cells. In kind it is cell-based, human. The settings on record: folate-/glycine-free RPMI1640 with 25 nM leucovorin; read-out: IC50s (SE) IGROV1 (EOC). As to the method: as §2, §1
For a further series, the system named is PC43-10 (RFC) (CHO). Briefly: proliferation assay, PC43-10 CHO cells expressing RFC only. The class given is cell-based, Chinese hamster. Particulars: folate-/glycine-free RPMI1640 with 25 nM leucovorin; 96 h; drug 0-1000 nM; read-out: IC50s (SE) PC43-10 (RFC) (CHO). As to the method:
as §2, §3
as §4, with “The drugs were dissolved in DMSO; an equivalent amount of DMSO was added to the control (no addition) samples.” left out

Series [1] deals with human MIA PaCa-2 pancreatic adenocarcinoma xenografts. Briefly: in vivo efficacy trial with MIA PaCa-2 pancreatic cancer xenografts. On the set-up: species or system SCID mice. As to the method:
Female ICR SCID mice (10 weeks old; 19 g average body weight) were implanted bilaterally with human MIA PaCa-2 tumors. […] The mice were weighed and tumors were measured with a caliper two-to-three times weekly; mice were sacrificed when the cumulative tumor burden reached 1500 mg. Tumor weights were estimated from two-dimensional measurements, where tumor mass (in mg) = (a x b^2)/2, and a and b are the tumor length and width in mm, respectively. The tumor masses from both tumors on each mouse were added together, and the total mass per mouse was used for calculations of anti-tumor activity. Quantitative end-points include: (i) tumor growth delay [T-C, where T is the median time in days required for the treatment group tumors to reach a predetermined size (e.g., 1000 mg), and C is the median time in days for the control group tumors to reach the same size; tumor-free survivors are excluded from these calculations]; and (ii) T/C (in percent) when treatment (T) and control (C) groups for the control groups reached 700 mg in size (exponential growth phase). The median value of each group was determined (including zeros). Mouse weights were monitored as a gauge of drug toxicity.
Female ICR SCID mice (10 weeks old; 19 g average body weight) were implanted bilaterally with human MIA PaCa-2 PaC tumors.
In vivo efficacy trial with MIA PaCa-2 pancreatic cancer xenografts. Methods for in vivo maintenance of MIA PaCa-2 tumor xenografts and drug efficacy evaluations are analogous to those previously described (58, 62-67). MIA PaCa-2 human pancreatic cancer cells (5 × 10^6 cells/flank) were bilaterally implanted subcutaneously with tumor fragments (30-60 mg) with a 12-gauge trocar in female […] SCID mice (NCI Animal Production Program). The mice were 10 weeks old on day 0 (tumor implant) with an average body weight of 19 g. For the efficacy trial, the mice were maintained on either a folate-deficient diet from Harlan-Teklad (TD.00434) starting 14 days before subcutaneous tumor implant to ensure serum folate levels would approximate those of humans. A separate cohort of mice was fed a folate-replete control diet from Lab Diet (5021). Mice were supplied with food and water ad libitum. Serum folate concentrations were monitored prior to tumor implant and post study by Lactobacillus casei bioassay (68). The mice in each group (folate-deficient and standard diet) were pooled before unselective distribution to the treatment and control groups. […] The drugs were dissolved in 5% ethanol (v/v), 1% Tween-80 (v/v), and 0.5% NaHCO3 and were administered intravenously (0.2 ml/injection). The mice were weighed and tumors were measured with a caliper two-to-three times weekly; mice were sacrificed when the cumulative tumor burden reached 1500 mg. Tumor weights were estimated from two-dimensional measurements, where tumor mass (in mg) = (a × b^2)/2, and a and b are the tumor length and width in mm, respectively. The tumor masses from both tumors on each mouse were added together, and the total mass per mouse was used for calculations of anti-tumor activity. Quantitative end-points include: (i) tumor growth delay [T-C, where T is the median time in days required for the treatment group tumors to reach a predetermined size (e.g., 1000 mg), and C is the median time in days for the control group tumors to reach the same size; tumor-free survivors are excluded from these calculations]; and (ii) T/C (in percent) when treatment (T) and control (C) groups for the control groups reached 700 mg in size (exponential growth phase). The median value of each group was determined (including zeros). Mouse weights were monitored as a gauge of drug toxicity.

Setting [2] is: IV, AGF291 Q6dx3 start d3, total 23.5 mg/kg, Gemcitabine Q4dx4 start d3, total 480 mg/kg.

Each structure is given as a SMILES string. pIC50: −log10 of the molar value. Some results are limits rather than exact numbers.

Take `Nc1nc2[nH]c(CCCc3ccc(C(=O)N[C@@H](CCC(=O)O)C(=O)O)s3)cc2c(=O)[nH]1` [AGF94, reference compound]: the “Ki SHMT2” value at SHMT2 is reported as “no inhibition”. The “protection from growth inhibition by AICA” value with H460 cells (AICA 320 µM) was “completely protective”. In addition, in the series on H460 cells (adenosine 60 µM, up to 10 µM drug), the “protection from growth inhibition by adenosine” value is “fully protective”. In the series on H460 cells (glycine 130 µM), the “protection from growth inhibition by glycine” value is “no effect”.

`Nc1nc2ccn(CCCc3ccc(C(=O)N[C@@H](CCC(=O)O)C(=O)O)c(F)c3)c2c(=O)[nH]1` [AGF359]: the pIC50 is 6.78 in the series on HPAC (PaC); less than 6.00 in the series on MIA PaCa-2 (PaC); 6.28 in the series with RT16 (FR alpha) (CHO); 6.64 with IGROV1 (EOC); 6.63 with PC43-10 (RFC) (CHO).

Regarding `Nc1ccn([C@@H]2O[C@H](CO)[C@@H](O)C2(F)F)c(=O)n1` [Gemcitabine, reference compound], in series [1] (setting [2]), the “Mean Body Weight Loss (g/mouse)” value is listed as -2.4 g/mouse and the “Percent Body Weight Loss” value is -12.2%. For the same compound, in series [1] (day 14, control cohort 1321 mg), the “median tumor burden on day 14” value is recorded as 255 mg. In addition, the “Median Tumor Burden in mg on d16 (range)” value in series [1] (day 16, IV, AGF291 total 23.5 mg/kg, Gemcitabine total 480 mg/kg) was 445 (150-527) mg. Further, the “Tumor Free on d52” value in series [1] (day 52, mice tumor free/total) is 0/5. Also, the “Tumor Growth Delay (T-C)” value in series [1] (median T-C to reach 1000 mg, AGF291 total 23.5 mg/kg, Gemcitabine total 480 mg/kg) is given as 7.5 days. The “Time to 1000 mg in days (range)” value in series [1] (median, IV, AGF291 total 23.5 mg/kg, Gemcitabine total 480 mg/kg) is on record as 20 (19-21) days. Moreover, in series [1] (nadir on day 17 for AGF291, day 6 for GEM, completely reversible after cessation of therapy), the “weight loss (median nadir)” value is on record as 12%. The compound also showed a T/C% in series [1] (treated/control median tumor burden, AGF291 7.75 mg/kg/inj Q6dx3, GEM 120 mg/kg/inj every 4 days, start day 3) of 26%.
